Assay: molar heat capacity at constant pressure
Details: 101.33 kPa

CC1=CCC2C(=O)OC(=O)C2C1 (stereo not given) [4-methyl-cyclohex-4-ene-1, 2-dicarboxylic acid anhydride]
Details | molar heat capacity at constant pressure [J/K/mol]
80 K, Crystal | 65.23
80.45 K, Crystal | 63.17
81.95 K, Crystal | 63.26
83.53 K, Crystal | 63.39
85 K, Crystal | 64.37
85.17 K, Crystal | 63.65
86.78 K, Crystal | 64.05
88.38 K, Crystal | 64.45
89.95 K, Crystal | 65.12
90 K, Crystal | 64.76
91.5 K, Crystal | 65.63
93.03 K, Crystal | 66.26
94.54 K, Crystal | 66.83
95 K, Crystal | 66.05
96.03 K, Crystal | 67.49
97.51 K, Crystal | 68.15
98.97 K, Crystal | 68.87
100 K, Crystal | 67.97
100.41 K, Crystal | 69.38
101.84 K, Crystal | 69.93
103.26 K, Crystal | 70.47
104.66 K, Crystal | 71.22
105 K, Crystal | 70.28
106.05 K, Crystal | 71.84
107.43 K, Crystal | 72.36
108.8 K, Crystal | 72.92
110 K, Crystal | 72.81
110.15 K, Crystal | 73.65
111.5 K, Crystal | 74.07
112.83 K, Crystal | 74.66
114.15 K, Crystal | 75.18
115 K, Crystal | 75.44
115.47 K, Crystal | 75.87
116.77 K, Crystal | 76.33
118.07 K, Crystal | 76.91
119.35 K, Crystal | 77.54
120 K, Crystal | 78.06
120.63 K, Crystal | 78.18
121.9 K, Crystal | 78.77
123.16 K, Crystal | 79.3
124.42 K, Crystal | 79.75
125 K, Crystal | 80.62
125.66 K, Crystal | 80.33
126.9 K, Crystal | 80.87
128.14 K, Crystal | 81.35
129.36 K, Crystal | 81.93
130 K, Crystal | 83.08
130.58 K, Crystal | 82.44
131.83 K, Crystal | 82.95
132.96 K, Crystal | 83.78
134.16 K, Crystal | 84.15
135 K, Crystal | 85.43
135.38 K, Crystal | 84.59
136.59 K, Crystal | 85.28
137.72 K, Crystal | 85.94
138.93 K, Crystal | 86.2
140 K, Crystal | 87.67
140.14 K, Crystal | 86.69
141.27 K, Crystal | 86.97
142.48 K, Crystal | 87.65
143.6 K, Crystal | 88.22
144.72 K, Crystal | 88.9
145 K, Crystal | 89.84
145.85 K, Crystal | 89.28
146.98 K, Crystal | 89.92
148.1 K, Crystal | 90.42
149.22 K, Crystal | 90.83
150 K, Crystal | 91.95
150.43 K, Crystal | 91.65
151.55 K, Crystal | 91.97
153.01 K, Crystal | 92.74
154.67 K, Crystal | 93.61
155 K, Crystal | 94.06
156.32 K, Crystal | 94.64
158.04 K, Crystal | 95.26
159.69 K, Crystal | 95.96
160 K, Crystal | 96.19
161.35 K, Crystal | 96.78
162.97 K, Crystal | 97.8
164.62 K, Crystal | 98.83
165 K, Crystal | 98.39
166.25 K, Crystal | 99.65
167.8 K, Crystal | 100.5
169.46 K, Crystal | 101.34
170 K, Crystal | 100.7
171.37 K, Crystal | 102.49
173.61 K, Crystal | 103.54
175 K, Crystal | 103.17
175.85 K, Crystal | 104.8
178.12 K, Crystal | 106.11
180 K, Crystal | 105.81
180.28 K, Crystal | 107.31
182.43 K, Crystal | 108.56
184.61 K, Crystal | 109.77
185 K, Crystal | 108.67
186.68 K, Crystal | 111.17
188.84 K, Crystal | 112.46
190 K, Crystal | 111.75
190.92 K, Crystal | 113.85
192.99 K, Crystal | 115.1
195 K, Crystal | 115.07
195.07 K, Crystal | 116.42
197.13 K, Crystal | 117.72
199.15 K, Crystal | 118.98
200 K, Crystal | 118.62
201.22 K, Crystal | 120.78
203.2 K, Crystal | 121.75
205 K, Crystal | 122.4
205.18 K, Crystal | 123.46
207.19 K, Crystal | 124.73
209.14 K, Crystal | 126.14
210 K, Crystal | 126.39
211.09 K, Crystal | 127.51
213.03 K, Crystal | 128.87
214.97 K, Crystal | 130.45
215 K, Crystal | 130.57
216.9 K, Crystal | 132.32
218.84 K, Crystal | 133.96
220 K, Crystal | 134.91
220.75 K, Crystal | 135.72
222.7 K, Crystal | 137.13
224.58 K, Crystal | 138.58
225 K, Crystal | 139.36
226.56 K, Crystal | 139.98
228.41 K, Crystal | 141.35
230 K, Crystal | 143.9
230.19 K, Crystal | 142.86
232.01 K, Crystal | 144.4
233.86 K, Crystal | 145.93
235 K, Crystal | 148.46
235.74 K, Crystal | 147.41
237.59 K, Crystal | 149.22
239.37 K, Crystal | 150.76
240 K, Crystal | 153.02
241.16 K, Crystal | 152.29
242.94 K, Crystal | 153.83
244.82 K, Crystal | 155.45
245 K, Crystal | 157.52
246.54 K, Crystal | 157.09
248.36 K, Crystal | 158.9
250 K, Crystal | 161.95
250.17 K, Crystal | 160.56
251.99 K, Crystal | 162.22
253.81 K, Crystal | 163.9
255 K, Crystal | 166.26
255.54 K, Crystal | 165.36
257.36 K, Crystal | 167.29
259.09 K, Crystal | 168.63
260 K, Crystal | 170.45
260.82 K, Crystal | 170.5
262.61 K, Crystal | 172.01
264.31 K, Crystal | 173.55
265 K, Crystal | 174.52
266.12 K, Crystal | 175.31
267.82 K, Crystal | 177.02
269.53 K, Crystal | 178.52
270 K, Crystal | 178.5
271.28 K, Crystal | 180.17
273.31 K, Crystal | 181.94
275 K, Crystal | 182.44
275.35 K, Crystal | 183.81
277.03 K, Crystal | 185.45
278.73 K, Crystal | 187.1
280 K, Crystal | 186.41
280.36 K, Crystal | 188.67
282.45 K, Crystal | 190.66
284.97 K, Crystal | 193.03
285 K, Crystal | 190.55
287.46 K, Crystal | 195.7
289.88 K, Crystal | 197.97
290 K, Crystal | 195
292.31 K, Crystal | 200.61
294.67 K, Crystal | 203.16
295 K, Crystal | 199.98
297.1 K, Crystal | 205.53
298.15 K, Crystal | 203.5
299.37 K, Crystal | 207.64
300 K, Crystal | 205.75
301.81 K, Crystal | 210.9
304.16 K, Crystal | 213.44
305 K, Crystal | 212.62
306.51 K, Crystal | 215.82
308.81 K, Crystal | 218.8
310 K, Crystal | 221
311.13 K, Crystal | 221.26
313.43 K, Crystal | 224.91
315 K, Crystal | 231.34
315.72 K, Crystal | 227.54
317.98 K, Crystal | 230.32
320 K, Crystal | 244.2
320.22 K, Crystal | 234.71
322.44 K, Crystal | 240.42
324.6 K, Crystal | 251.25
325 K, Crystal | 260.21
326.7 K, Crystal | 266.66
328.7 K, Crystal | 300.96
330 K, Crystal | 280.12
337.34 K, Liquid | 308.51
339.25 K, Liquid | 307.6
340 K, Liquid | 306.94
341.15 K, Liquid | 306.76
343.06 K, Liquid | 306.95
344.96 K, Liquid | 308.07
345 K, Liquid | 308.18
346.86 K, Liquid | 309.65
348.76 K, Liquid | 311.73
350 K, Liquid | 313.29
350.67 K, Liquid | 314.26
352.57 K, Liquid | 316.99
354.47 K, Liquid | 319.51
355 K, Liquid | 320.24
356.36 K, Liquid | 322.01
358.26 K, Liquid | 324.95
360 K, Liquid | 327.6
360.13 K, Liquid | 327.9
